From publication PMC9050848, “Carbamoyl-N-aryl-imine-urea: a new framework to obtain a putative leishmanicidal drug-candidate” (RSC Advances, 2020)

How the values were obtained:
[1] = tested on: L. braziliensis intracellular amastigotes; test: Leishmanicidal activity against intracellular amastigote forms of L. braziliensis in J774.A1 macrophages; format: cell-based; details: Leishmania braziliensis
Excerpt: Further, the leishmanicidal activity against intracellular amastigotes forms of L. braziliensis were also investigated (Table 2).
Promastigotes of L. amazonensis (MHOM/BR/77/LTB0016) were obtained from Dr Eduardo Caio Torres dos Santos at Oswaldo Cruz Institute – Fiocruz. Promastigotes of L. braziliensis (MHOM/BR/01/BA788) were obtained from Dr Valéria de Matos Borges at Gonçalo Moniz Research Center – Fiocruz. The parasites were maintained in vitro in Schneider's medium, supplemented with 10% FBS and 2% human urine at 27 °C in BOD incubator.
Initially, compounds 9a–e and 10a–e were evaluated at screening concentration of 30 μM against L. amazonensis, using DMSO 0.03% as vehicle control, since this was the DMSO concentration (vehicle) remaining in each well with the tested compounds. […] Vehicle control used was DMSO 0.1%, since this was the concentration of DMSO (vehicle) existing in each well with the tested substances in the highest concentration used.
To assess the activity of the test derivatives against the amastigote stage of L. amazonensis and L. braziliensis the model of infection in coverglass was realized.[31] The murine macrophages (J774.A1 cell line) were prepared in 24-well cell culture plate (flat bottom, clear, Corning) at 2 × 10^5 adherent cells per well, infected with 2 × 10^6 promastigotes in glass coverslips placed inside 1 mL medium culture. The cultures were cultured or not with the test derivatives or reference drugs, and kept for 24 h at 37 °C, 5% CO2. After 24 h of incubation, the coverslips were washed, stained with Giemsa–May–Grünwald, and intracellular amastigotes were counted in 100 macrophages, using an optical microscope, on the objective of 100×. Thus, during the counting of 100 macrophages, the amount of amastigotes present within these defence cells was also determined. Data obtained from in vitro experiments were expressed as the mean ± S.E.M. of duplicate cultures of representative assays. Statistical differences between the treated and the control groups were evaluated by ANOVA and Dunnett hoc tests. Differences with a p value < 0.05 or lower were considered significant.

[2] = tested on: J774.A1 cell lines (macrophages); test: Cytotoxicity against J774.A1 macrophages, MTT assay; format: cell-based, murine (BALB/c); details: Mus musculus, J774.A1, 48 h, read-out: IC50 (concentration required to give 50% death of cells)
Method: Initially the cytotoxic profile of compounds 9a–e and 10a–e against J774.A1 cell lines (i.e., BALB/c macrophage cell lines) was investigated. Therefore, these cells were exposed to different concentrations (0.1–100 μM) of compounds 9a–e and 10a–e and the cytotoxic effect was measured after 48 h of drug incubation, by using MTT-based assay. The cytotoxicity was expressed as IC50 values (that means the concentration of a drug that kills half of the tested cells in culture). As depicted in Table 1, most compounds have shown low cytotoxic activity with IC50 > 100 μM.
These adherent-phenotype macrophage lines were cultured in Dulbecco's Modified Eagle's medium (DMEM, Sigma) supplemented with 10% FBS at 37 °C with 95% humidity and 5% CO2.
To evaluate the cytotoxic activity against the J774.A1 cell line, the host cells were plated in 96-well cell culture plate (flat bottom, clear, Corning) at 2 × 10^5 cells per well in complete culture medium 10% FBS at 37 °C. After 1 h wells were washed with warm Hank's Balanced Salt solution (HBSS) to remove non-adherent cells, leaving approximately 10^5 adherent macrophages. All cultures were done in DMEM complete supplemented with 10% FBS. The compounds and pentamidine were added at serial concentrations (0.1–100 μM). The cells were also cultured with medium free from compounds or vehicle (basal growth control) or in media with DMSO 0.1% (vehicle control). Positive control (dead cells) was obtained by cellular lysis with 1% of Triton 100× in DMEM complete (because it is a detergent in this concentration, Triton 100× destabilizes the cell membrane of macrophages, causing cell death). The cytotoxicity was evaluated by the MTT assay.[31] This assay consists of indirectly measuring cell viability through the mitochondrial enzymatic activity of macrophages. Viable cells are capable of reducing MTT to formazan. For this, after the incubation of plate for 48 h, 100 μL of MTT solution (0.5 mg mL^−1, in DMEM medium) was added per well, and the plate was incubated for 1 h. Then, the supernatant of each well was retired and was added 150 μL of DMSO. The absorbance was determined at 570 nm in a microplate reader. The cell viability of the cultures treated with the compounds was compared to the death pattern obtained in the control cultures. In the positive control, the cell death was confirmed when the optical density was equal to zero, confirming that the cells were not viable. Data obtained from experiments were expressed as the mean ± standard error of the mean (mean ± S.E.M.) and statistical differences between the treated and the vehicle groups of experiments were evaluated by ANOVA and Dunnett hoc tests.

Work on O=C(N/N=C/c1ccc(C(F)(F)F)cc1)NNC(=O)c1ccc(Cl)cc1Cl [LASSBio-1736 (10e), 2,4-dichloro-phenylcarbamoyl-N-4-trifluoromethylphenylimine-urea] yielded an IC50 ([1]; J774.A1, 24 h, read-out: IC50 (concentration required to give 50% death of parasites)) of 5.3 ± 2.6 µM, an Emax ([1]; J774.A1, L. braziliensis intracellular amastigotes, maximum toxicity vs 0.1% DMSO group, read-out: Maximum effect (% ± S.E.M.)) of 57.2 ± 5.2% and an IC50 [2] greater than 100 µM.
